Tested on: adult zebrafish, paclitaxel induced nerve damage
Test: Paclitaxel-induced peripheral neuropathy in adult zebrafish (tail fin stimulation)
Type: in vivo
Details: 3 μL of 10-μM paclitaxel, four consecutive days (Days 2-5), FIG. 9
Protocol: Method to evaluate potential of compounds of Formula 1 to reduce or block chemotherapy-induced peripheral neuropathy—Animal (zebrafish) model described below and in literature (Lisse T S et al PNAS 113 (15) E2189-E2198) was used to evaluate potential of compounds of Formula 1 to reduce or block neuronal damage induced by chemotherapeutics.
To induce peripheral neuropathy in adult zebrafish, 3 μL of a 10-μM paclitaxel solution in 0.15% DMSO was administered with a 33 gauge Hamilton Syringe for a zebrafish with average ˜200 mg body weight. Fish were treated with vehicle alone or paclitaxel for four consecutive days (Days 2-5) or paclitaxel with Compound A (10- or 30 ng). Compound A was dosed orally by mixing with the fish feed pellets. Fishes were conditioned to consume three pellets a day. […] To prepare test compound infused pellet, a known quantity of the compound was mixed with the known quantity of the feed powder and were extruded in to 4 mg pellet containing the desired administration dose per pellet. Concentration of test compound dosed per fish were controlled by the number of pellets and the quantity of compound per pellet. […]
To determine the peripheral nerve damage, fish were wrapped in plastic foil until calm, and the distal tail fin was stimulated with an insect pin until twitching of the fish was observed. Number of stimuli until twitch was recorded.

## CC(=O)O[C@H]1C(=O)[C@@]2(C)[C@H]([C@H](OC(=O)c3ccccc3)[C@]3(O)C[C@H](OC(=O)[C@H](O)[C@@H](NC(=O)c4ccccc4)c4ccccc4)C(C)=C1C3(C)C)[C@]1(OC(C)=O)CO[C@@H]1C[C@@H]2O [paclitaxel]
  peripheral nerve damage (number of stimuli until twitch) compared to vehicle alone: significant nerve damage

Reference: US20260115186A1, “PIPERIDINE UREA DERIVATIVES FOR CANCER THERAPY” (NEUROPN THERAPEUTICS INC., priority 2022, published 2026)
